Measurements from patent US6448204B1, “Herbicidal 2-aryloxy-4-methyl-6-pyrazol-1-yl-pyridines” (BASF Aktiengesellschaft, priority 1999, dated 2002).

What was measured:
Assay type in all cases: in vivo
[1] = test system: Matricaria inodora (MATIN); experiment: Pre-emergence test; conditions: 3 weeks after treatment
Experimental: (§1) To evaluate their herbicidal activity, compounds according to the invention are tested using a representative range of plants: […] The pre-emergence tests involve spraying a liquid formulation of the compound onto the soil in which the seeds of the plant species mentioned above has recently been sown. The soil used in the tests is a prepared horticultural loam. […] In these tests untreated sown soil are used as controls.

[2] = test system: Abutilon theophrasti (ABUTH); experiment: Pre-emergence test; conditions: 3 weeks after treatment
Experimental: as §1

Galium aparine (GALAP) = experiment: Pre-emergence test; conditions: 3 weeks after treatment
Experimental: as §1

[3] = test system: Digitaria sanguinalis (DIGSA); experiment: Pre-emergence test; conditions: 3 weeks after treatment
Experimental: as §1

Lamium purpureum (LAMPU) = experiment: Pre-emergence test; conditions: 3 weeks after treatment
Experimental: as §1

Setaria viridis (SETVI) = experiment: Pre-emergence test; conditions: 3 weeks after treatment
Experimental: as §1

Stellaria media (STEME) = experiment: Pre-emergence test; conditions: 3 weeks after treatment
Experimental: as §1

[4] = test system: Cassia obtusifolia (CASOB); experiment: Pre-emergence test; conditions: 3 weeks after treatment
Experimental: as §1

[5] = test system: Echinochloa crus-galli (ECHCG); experiment: Pre-emergence test; conditions: 3 weeks after treatment
Experimental: as §1

[6] = test system: Alopecurus myosuroides (ALOMY); experiment: Pre-emergence test; conditions: 3 weeks after treatment
Experimental: as §1

Zea mays (ZEAMX) = experiment: Pre-emergence test; conditions: for Assessment rating ZEAMX (pre-emergence application): crop (corn), 3 weeks after treatment
Experimental: as §1

[7] = test system: Ambrosia artemisifolia (AMBEL); experiment: Pre-emergence test; conditions: 3 weeks after treatment
Experimental: as §1

weed species = experiment: Post-emergence test, summary over all weeds
Experimental: To evaluate their herbicidal activity, compounds according to the invention are tested using a representative range of plants:
These acetone solutions are diluted with water and the resulting formulations applied at dosage levels equivalent of about 0.025 to 0.4 kg per hectare of test compound per pot. After spraying the plants are placed on greenhouse benches and are cared for in the usual manner, commensurate with conventional greenhouse practices. From 2 to 4 weeks after treatment, the seedling plants are examined and rated according to the rating system provided above.

Cc1cc(Oc2cc(C(F)(F)F)nn2C)nc(-n2ccc(C(F)(F)F)n2)c1 [Example 2, 4-methyl-2-(-3-trifluoromethyl-1H-prazol-1-yl)-6-(1-methyl-3-trifluoromethyl-pyrazol-5-yloxy)-pyridine]
8 (8 - Approaching complete kill): Assessment rating MATIN (pre-emergence application) ([1]; 0.025 kg/ha) | Assessment rating ABUTH (pre-emergence application) ([2]; 0.100 kg/ha) | Assessment rating GALAP (pre-emergence application) (Galium aparine (GALAP); 0.400 kg/ha) | Assessment rating LAMPU (pre-emergence application) (Lamium purpureum (LAMPU); 0.013 kg/ha) | Assessment rating LAMPU (pre-emergence application) (Lamium purpureum (LAMPU); 0.025 kg/ha) | Assessment rating CASOB (pre-emergence application) ([4]; 0.100 kg/ha) | Assessment rating ECHCG (pre-emergence application) ([5]; 0.100 kg/ha) | Assessment rating ECHCG (pre-emergence application) ([5]; 0.400 kg/ha) | Assessment rating ALOMY (pre-emergence application) ([6]; 0.100 kg/ha) | Assessment rating ALOMY (pre-emergence application) ([6]; 0.400 kg/ha) | Assessment rating AMBEL (pre-emergence application) ([7]; 0.100 kg/ha)
clearly superior activity: Herbicidal activity, overall judgement (weed species; versus known compound of the prior art)
7 (7 - Good herbicidal effect): Assessment rating MATIN (pre-emergence application) ([1]; 0.013 kg/ha) | Assessment rating AMBEL (pre-emergence application) ([7]; 0.025 kg/ha)
2 (2 - Slight effect): Assessment rating ECHCG (pre-emergence application) ([5]; 0.025 kg/ha) | Assessment rating ALOMY (pre-emergence application) ([6]; 0.013 kg/ha) | Assessment rating ZEAMX (pre-emergence application) (Zea mays (ZEAMX); 0.100 kg/ha)
4 (4 - Injury): Assessment rating CASOB (pre-emergence application) ([4]; 0.025 kg/ha) | Assessment rating ZEAMX (pre-emergence application) (Zea mays (ZEAMX); 0.400 kg/ha) | Assessment rating AMBEL (pre-emergence application) ([7]; 0.013 kg/ha)
9 (9 - Complete kill): Assessment rating MATIN (pre-emergence application) ([1]; 0.100 kg/ha) | Assessment rating MATIN (pre-emergence application) ([1]; 0.400 kg/ha) | Assessment rating ABUTH (pre-emergence application) ([2]; 0.400 kg/ha) | Assessment rating DIGSA (pre-emergence application) ([3]; 0.013 kg/ha) | Assessment rating DIGSA (pre-emergence application) ([3]; 0.025 kg/ha) | Assessment rating DIGSA (pre-emergence application) ([3]; 0.100 kg/ha) | Assessment rating DIGSA (pre-emergence application) ([3]; 0.400 kg/ha) | Assessment rating LAMPU (pre-emergence application) (Lamium purpureum (LAMPU); 0.100 kg/ha) | Assessment rating LAMPU (pre-emergence application) (Lamium purpureum (LAMPU); 0.400 kg/ha) | Assessment rating SETVI (pre-emergence application) (Setaria viridis (SETVI); 0.013 kg/ha) | Assessment rating SETVI (pre-emergence application) (Setaria viridis (SETVI); 0.025 kg/ha) | Assessment rating SETVI (pre-emergence application) (Setaria viridis (SETVI); 0.100 kg/ha) | Assessment rating SETVI (pre-emergence application) (Setaria viridis (SETVI); 0.400 kg/ha) | Assessment rating STEME (pre-emergence application) (Stellaria media (STEME); 0.025 kg/ha) | Assessment rating STEME (pre-emergence application) (Stellaria media (STEME); 0.100 kg/ha) | Assessment rating STEME (pre-emergence application) (Stellaria media (STEME); 0.400 kg/ha) | Assessment rating CASOB (pre-emergence application) ([4]; 0.400 kg/ha) | Assessment rating AMBEL (pre-emergence application) ([7]; 0.400 kg/ha)
5 (5 - Definite injury): Assessment rating ALOMY (pre-emergence application) ([6]; 0.025 kg/ha)
0 (0 - No effect): Assessment rating CASOB (pre-emergence application) ([4]; 0.013 kg/ha) | Assessment rating ZEAMX (pre-emergence application) (Zea mays (ZEAMX); 0.013 kg/ha)
3 (3 - Moderate effect): Assessment rating ABUTH (pre-emergence application) ([2]; 0.025 kg/ha) | Assessment rating GALAP (pre-emergence application) (Galium aparine (GALAP); 0.025 kg/ha)
6 (6 - Herbicidal effect): Assessment rating GALAP (pre-emergence application) (Galium aparine (GALAP); 0.100 kg/ha) | Assessment rating STEME (pre-emergence application) (Stellaria media (STEME); 0.013 kg/ha)
twelve weed species: Number of weed species controlled (weed species; 0.100 kg/ha)
1 (1 - Trace effect): Assessment rating ABUTH (pre-emergence application) ([2]; 0.013 kg/ha) | Assessment rating GALAP (pre-emergence application) (Galium aparine (GALAP); 0.013 kg/ha) | Assessment rating ECHCG (pre-emergence application) ([5]; 0.013 kg/ha) | Assessment rating ZEAMX (pre-emergence application) (Zea mays (ZEAMX); 0.025 kg/ha)
Good selectivity in maize: Selectivity in maize (Zea mays (ZEAMX); pre-emergence, 0.100 kg/ha)
